Source: US20240360157A1, “TYK2 INHIBITORS” (BIOGEN MA INC., priority 2021, published 2024)

Tests used:
Assay type in all cases: biochemical
[1] = biological target: human TYK2 catalytic kinase (JH1) domain (Homo sapiens (Human), UniProt P29597); assay: ADP-Glo Kinase Assay, recombinant TYK2 catalytic kinase (JH1) domain; conditions: recombinant JH1 domain 2 nM, 10 μM ATP, JAK3-974 peptide, mean, read-out: TYK2 biochem IC50 (nM) Mean
In short: (§1)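 Reactions contain 50 μM peptide and run 100 minutes, with enzyme at 4, 0.2, 0.3 and 2 nM for JAK1, JAK2, JAK3 and TYK2. Generated ADP is read by luminescence; IC50 derives from normalized dose-response curves.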

[2] = biological target: human JAK1 catalytic kinase (JH1) domain (Homo sapiens (Human), UniProt P23458); assay: ADP-Glo Kinase Assay, recombinant JAK1 catalytic kinase (JH1) domain; conditions: recombinant JH1 domain 4 nM, 35 μM ATP, JAK3-342 peptide, mean, read-out: JAK1 biochem IC50 (nM) Mean
Chain of human JAK1 catalytic kinase (JH1) domain (P23458 875-1153): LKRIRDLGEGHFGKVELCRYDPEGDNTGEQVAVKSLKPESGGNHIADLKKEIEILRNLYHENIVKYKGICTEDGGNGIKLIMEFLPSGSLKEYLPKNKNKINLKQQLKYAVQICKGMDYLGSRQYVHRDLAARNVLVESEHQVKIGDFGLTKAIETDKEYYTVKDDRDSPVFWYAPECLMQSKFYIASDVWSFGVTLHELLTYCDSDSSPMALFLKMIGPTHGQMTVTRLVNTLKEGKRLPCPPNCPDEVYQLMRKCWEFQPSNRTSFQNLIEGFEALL
In short: as §1

[3] = biological target: human JAK2 catalytic kinase (JH1) domain (Homo sapiens (Human), UniProt O60674); assay: ADP-Glo Kinase Assay, recombinant JAK2 catalytic kinase (JH1) domain; conditions: recombinant JH1 domain 0.2 nM, 15 μM ATP, JAK3-974 peptide, mean, read-out: JAK2 biochem IC50 (nM) Mean
Chain of human JAK2 catalytic kinase (JH1) domain (O60674 849-1124): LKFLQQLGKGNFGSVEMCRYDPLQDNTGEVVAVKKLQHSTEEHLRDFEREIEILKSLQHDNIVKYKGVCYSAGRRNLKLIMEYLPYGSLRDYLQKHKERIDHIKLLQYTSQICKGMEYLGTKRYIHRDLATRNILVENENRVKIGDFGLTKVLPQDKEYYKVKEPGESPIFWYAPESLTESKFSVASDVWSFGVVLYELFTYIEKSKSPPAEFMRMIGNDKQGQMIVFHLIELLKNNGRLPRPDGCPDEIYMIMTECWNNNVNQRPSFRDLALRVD
In short: as §1

[4] = biological target: human JAK3 catalytic kinase (JH1) domain (Homo sapiens (Human), UniProt P52333); assay: ADP-Glo Kinase Assay, recombinant JAK3 catalytic kinase (JH1) domain; conditions: recombinant JH1 domain 0.3 nM, 4 μM ATP, JAK3-974 peptide, mean, read-out: JAK3 biochem IC50 (nM) Mean
Chain of human JAK3 catalytic kinase (JH1) domain (P52333 822-1111): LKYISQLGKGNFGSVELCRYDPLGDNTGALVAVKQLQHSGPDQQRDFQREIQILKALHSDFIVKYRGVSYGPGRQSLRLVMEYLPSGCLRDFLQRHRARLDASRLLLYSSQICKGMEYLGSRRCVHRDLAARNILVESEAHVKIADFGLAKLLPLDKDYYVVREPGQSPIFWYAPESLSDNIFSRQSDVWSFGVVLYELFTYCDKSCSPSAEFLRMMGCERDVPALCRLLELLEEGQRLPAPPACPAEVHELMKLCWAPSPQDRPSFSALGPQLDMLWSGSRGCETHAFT
In short: as §1

Chain of human TYK2 catalytic kinase (JH1) domain (P29597 897-1176): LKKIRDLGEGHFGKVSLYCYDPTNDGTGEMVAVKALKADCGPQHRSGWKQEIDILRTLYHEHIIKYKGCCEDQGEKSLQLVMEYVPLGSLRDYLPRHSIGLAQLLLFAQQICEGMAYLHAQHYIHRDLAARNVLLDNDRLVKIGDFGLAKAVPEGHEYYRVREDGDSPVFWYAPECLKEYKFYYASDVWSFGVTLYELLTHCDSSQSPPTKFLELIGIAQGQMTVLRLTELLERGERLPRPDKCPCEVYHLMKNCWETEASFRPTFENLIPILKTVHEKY

SMILES	IC50 [1]	IC50 [2]	IC50 [3]	IC50 [4]
O=C(C1C[C@H]1F)N1C2CCC1CN(c1ncnc3[nH]c(-c4cncc(F)c4)cc13)C2 (stereo partly drawn) [Example 229]	122 nM	1240 nM	1740 nM	10000 nM
Cc1cc(-c2cc3c(N4CC5CCC(C4)N5C(=O)[C@@H]4C[C@H]4F)ncnc3[nH]2)ccn1 [Example 230, ((1S,2R)-2-fluorocyclopropyl)(3-(6-(2-methylpyridin-4-yl)-7H-pyrrolo[2,3-d]pyrimidin-4-yl)-3,8-diazabicyclo[3.2.1]octan-8-yl)methanone]	8.2 nM	91 nM	218 nM	742 nM
COc1cc(-c2cc3c(N4CC5CCC(C4)N5C(=O)[C@@H]4C[C@H]4F)ncnc3[nH]2)ccn1 [Example 231, ((1S,2R)-2-fluorocyclopropyl)(3-(6-(2-methoxypyridin-4-yl)-7H-pyrrolo[2,3-d]pyrimidin-4-yl)-3,8-diazabicyclo[3.2.1]octan-8-yl)methanone]	12.4 nM	115 nM	307 nM	877 nM
O=C(C1C[C@H]1F)N1C2CCC1CN(c1ncnc3[nH]c(-c4ccncc4F)cc13)C2 (stereo partly drawn) [Example 232]	13.1 nM	226 nM	322 nM	848 nM
N#Cc1cc(-c2cc3c(N4CC5CCC(C4)N5C(=O)[C@@H]4C[C@H]4F)ncnc3[nH]2)ccn1 [Example 233, 4-(4-(8-((1S,2R)-2-fluorocyclopropane-1-carbonyl)-3,8-diazabicyclo[3.2.1]octan-3-yl)-7H-pyrrolo[2,3-d]pyrimidin-6-yl)picolinonitrile]	15.4 nM	174 nM	248 nM	3240 nM
O=C([C@@H]1C[C@H]1F)N1C2CCC1CN(c1ncnc3[nH]c(-c4ccnnc4)cc13)C2 [Example 234, ((1S,2R)-2-fluorocyclopropyl)(3-(6-(pyridazin-4-yl)-7H-pyrrolo[2,3-d]pyrimidin-4-yl)-3,8-diazabicyclo[3.2.1]octan-8-yl)methanone]	28.6 nM	388 nM	598 nM	3200 nM
Cn1cc(-c2cc3c(N4CC5CCC(C4)N5C(=O)[C@@H]4C[C@H]4F)ncnc3[nH]2)cn1 [Example 235, ((1S,2R)-2-fluorocyclopropyl)(3-(6-(1-methyl-1H-pyrazol-4-yl)-7H-pyrrolo[2,3-d]pyrimidin-4-yl)-3,8-diazabicyclo[3.2.1]octan-8-yl)methanone]	5.3 nM	117 nM	106 nM	338 nM
Cn1cc(-c2cc3c(N4CC5CCC(C4)N5C(=O)C4CC4)ccnc3[nH]2)cn1 [Example 236, cyclopropyl(3-(2-(1-methyl-1H-pyrazol-4-yl)-1H-pyrrolo[2,3-b]pyridin-4-yl)-3,8-diazabicyclo[3.2.1]octan-8-yl)methanone]	3.8 nM	145 nM	99 nM	253 nM
O=C(C1CC1)N1C2CCC1CN(c1ccnc3[nH]c(-c4cnn(C(F)F)c4)cc13)C2 [Example 237, cyclopropyl(3-(2-(1-(difluoromethyl)-1H-pyrazol-4-yl)-1H-pyrrolo[2,3-b]pyridin-4-yl)-3,8-diazabicyclo[3.2.1]octan-8-yl)methanone]	1.1 nM	50 nM	39 nM	183 nM
Cn1cc(-c2cc3c(N4CC5CCC(C4)N5C(=O)[C@@H]4C[C@H]4F)ccnc3[nH]2)cn1 [Example 238, ((1S,2R)-2-fluorocyclopropyl)(3-(2-(1-methyl-1H-pyrazol-4-yl)-1H-pyrrolo[2,3-b]pyridin-4-yl)-3,8-diazabicyclo[3.2.1]octan-8-yl)methanone]	0.1 nM	10 nM	6 nM	61 nM
Cn1cc(-c2cc3c(N4CC5CCC(C4)N5C(=O)C4(F)CC4)ccnc3[nH]2)cn1 [Example 240, (1-fluorocyclopropyl)(3-(2-(1-methyl-1H-pyrazol-4-yl)-1H-pyrrolo[2,3-b]pyridin-4-yl)-3,8-diazabicyclo[3.2.1]octan-8-yl)methanone]	4.4 nM	44 nM	42 nM	35 nM
Cn1ncc(-c2cc3c(N4CC5CCC(C4)N5C(=O)C4(F)CC4)ccnc3[nH]2)c1F [Example 242, (3-(2-(5-fluoro-1-methyl-1H-pyrazol-4-yl)-1H-pyrrolo[2,3-b]pyridin-4-yl)-3,8-diazabicyclo[3.2.1]octan-8-yl)(1-fluorocyclopropyl)methanone]	113 nM	362 nM	690 nM	296 nM
Cn1cc(-c2cc3c(N4CC5CCC(C4)N5C(=O)C4(F)CC4)ccnc3[nH]2)c(F)n1 [Example 243, (3-(2-(3-fluoro-1-methyl-1H-pyrazol-4-yl)-1H-pyrrolo[2,3-b]pyridin-4-yl)-3,8-diazabicyclo[3.2.1]octan-8-yl)(1-fluorocyclopropyl)methanone]	2.8 nM	79 nM	26 nM	27 nM
Cn1cc(-c2cc3c(N4CC5CCC(C4)N5C(=O)[C@@H]4C[C@H]4F)ccnc3[nH]2)c(F)n1 [Example 244, (3-(2-(3-fluoro-1-methyl-1H-pyrazol-4-yl)-1H-pyrrolo[2,3-b]pyridin-4-yl)-3,8-diazabicyclo[3.2.1]octan-8-yl)((1S,2R)-2-fluorocyclopropyl)methanone]	0.2 nM	18 nM	4 nM	73 nM
COc1cc(-c2cc3c(N4CC5CCC(C4)N5C(=O)[C@@H]4C[C@H]4F)ccnc3[nH]2)ccn1 [Example 245, ((1S,2R)-2-fluorocyclopropyl)(3-(2-(2-methoxypyridin-4-yl)-1H-pyrrolo[2,3-b]pyridin-4-yl)-3,8-diazabicyclo[3.2.1]octan-8-yl)methanone]	0.4 nM	7 nM	11 nM	115 nM
COc1nccc(-c2cc3c(N4CC5CCC(C4)N5C(=O)[C@@H]4C[C@H]4F)ccnc3[nH]2)c1F [Example 247, ((1S,2R)-2-fluorocyclopropyl)(3-(2-(3-fluoro-2-methoxypyridin-4-yl)-1H-pyrrolo[2,3-b]pyridin-4-yl)-3,8-diazabicyclo[3.2.1]octan-8-yl)methanone]	1.4 nM	40 nM	18 nM	168 nM
COc1cc(-c2cn3nccc(N4CC5CCC(C4)N5C(=O)[C@@H]4C[C@H]4F)c3n2)ccn1 [Example 248, ((1S,2R)-2-fluorocyclopropyl)(3-(2-(2-methoxypyridin-4-yl)imidazo[1,2-b]pyridazin-8-yl)-3,8-diazabicyclo[3.2.1]octan-8-yl)methanone]	9.5 nM	23 nM	48 nM	515 nM
Cc1c(-c2cnn(C)c2)[nH]c2nccc(N3CC4CCC(C3)N4C(=O)[C@@H]3C[C@H]3F)c12 [Example 249, ((1S,2R)-2-fluorocyclopropyl)(3-(3-methyl-2-(1-methyl-1H-pyrazol-4-yl)-1H-pyrrolo[2,3-b]pyridin-4-yl)-3,8-diazabicyclo[3.2.1]octan-8-yl)methanone]	19 nM	1240 nM	251 nM	2810 nM
Cn1cc(-c2[nH]c3nccc(N4CC5CCC(C4)N5C(=O)[C@@H]4C[C@H]4F)c3c2C#N)cn1 [Example 250, 4-(8-((1S,2R)-2-fluorocyclopropane-1-carbonyl)-3,8-diazabicyclo[3.2.1]octan-3-yl)-2-(1-methyl-1H-pyrazol-4-yl)-1H-pyrrolo[2,3-b]pyridine-3-carbonitrile]	7.1 nM	455 nM	53 nM	455 nM
Cn1cc(-c2cc3nccc(N4CC5CCC(C4)N5C(=O)[C@@H]4C[C@H]4F)n3n2)cn1 [Example 251, ((1S,2R)-2-fluorocyclopropyl)(3-(2-(1-methyl-1H-pyrazol-4-yl)pyrazolo[1,5-a]pyrimidin-7-yl)-3,8-diazabicyclo[3.2.1]octan-8-yl)methanone]	81 nM	322 nM	472 nM	2920 nM
Cn1cc(-c2cn3nccc(N4CC5CCC(C4)N5C(=O)[C@@H]4C[C@H]4F)c3n2)cn1 [Example 252, ((1S,2R)-2-fluorocyclopropyl)(3-(2-(1-methyl-1H-pyrazol-4-yl)imidazo[1,2-b]pyridazin-8-yl)-3,8-diazabicyclo[3.2.1]octan-8-yl)methanone]	4 nM	28 nM	28 nM	269 nM
